According to publication PMC5897141 (Journal of neurochemistry, 2018):
Where “and” joins values, the source holds several entries; their conditions need not be identical. Identical values can stand only once. Like-named read-outs stand apart in the source and are kept apart here.

What was measured:
[1] = system: VAChT; settings: Lassen plot, baseline vs (-)-vesamicol 0.125 mg/kg; subject A
[2] = system: VAChT; assay: Test-retest reproducibility of BPND; assay type: in vivo, cynomolgus macaques; settings: mean ± SD, 3 NHP subjects
[3] = target: VAChT; settings: ref Tu et al. 2015; cited from earlier work
[4] = HPLC radio-metabolite analysis of arterial plasma; assay type: in vivo, cynomolgus macaques
[5] = system: σ1/2 receptors; settings: cited from earlier work
[6] = system: VAChT; assay type: in vivo, cynomolgus macaques
[7] = system: VAChT; settings: NHP brain; ref Nishiyama et al. 2014; cited from earlier work
[8] = after 20 min p.i., 3 NHP subjects
[9] = 1TCM, striatum, mean ± SD, n = 3
[10] = 2TCM, cerebellum-hemispheres, mean ± SD, n = 3
[11] = 2TCM, frontal cortex, mean ± SD, n = 3
[12] = 2TCM, hippocampus, mean ± SD, n = 3
[13] = 2TCM, midbrain, mean ± SD, n = 3
[14] = 2TCM, occipital cortex, mean ± SD, n = 3
[15] = 2TCM, striatum, mean ± SD, n = 3
[16] = 2TCM, temporal cortex, mean ± SD, n = 3
[17] = 2TCM, thalamus, mean ± SD, n = 3
[18] = 2TCM, white matter, mean ± SD, n = 3
[19] = LoganAIF, striatum, mean ± SD, n = 3
[20] = MA1, striatum, mean ± SD, n = 3
[21] = RTM, reference cerebellum-hemispheres, striatum, mean ± SD, n = 7
[22] = SRTM, reference cerebellum-hemispheres, striatum, mean ± SD, n = 7
[23] = SRTM, frontal cortex, mean ± SD, n = 7
[24] = SRTM, hippocampus, mean ± SD, n = 7
[25] = SRTM, middle brain, mean ± SD, n = 7
[26] = SRTM, occipital cortex, mean ± SD, n = 7
[27] = SRTM, temporal cortex, mean ± SD, n = 7
[28] = SRTM, thalamus, mean ± SD, n = 7
[29] = SRTM, white matter, mean ± SD, n = 7

## O=C(c1ccc(F)cc1)C1CCN(C2Cc3c(cccc3OCCF)CC2O)CC1 (single isomer, unassigned; (-)) [[^18F]VAT, ((-)-(1-(-8-(2-fluoroethoxy)-3-hydroxy-1,2,3,4-tetrahydronaphthalen-2-yl)piperidin-4-yl)(4-fluorophenyl)-methanone)]
[1]
  VND (non-displaceable distribution volume): ~ 1.27
[2]; LoganREF, frontal cortex
  retest BPND: 0.29 ± 0.08
  test BPND: 0.29 ± 0.06
[2]; LoganREF, hippocampus
  retest BPND: 0.47 ± 0.19
  test BPND: 0.46 ± 0.18
[2]; LoganREF, striatum
  retest BPND: 2.26 ± 0.46
  test BPND: 2.39 ± 0.73
[2]; LoganREF, thalamus
  retest BPND: 0.74 ± 0.09
  test BPND: 0.70 ± 0.10
[2]; SRTM, frontal cortex
  retest BPND: 0.30 ± 0.03
  test BPND: 0.32 ± 0.07
[2]; SRTM, hippocampus
  retest BPND: 0.48 ± 0.14
  test BPND: 0.46 ± 0.16
[2]; SRTM, striatum
  retest BPND: 2.15 ± 0.38
  test BPND: 2.38 ± 0.69
[2]; SRTM, thalamus
  retest BPND: 0.77 ± 0.12
  test BPND: 0.77 ± 0.13
[3]
  Ki: 0.59 nM
[4]; 2 min post-injection
  percentile of unmetabolized parental tracer in plasma: 96% ± 1
[4]; 90 min post-injection
  percentile of unmetabolized parental tracer in plasma: 14% ± 2.7
[4]; [8]
  parent tracer as share of total radioactivity in plasma: over 60%
  polar metabolites as share of total radioactivity in plasma: ~ 40%
[4]; post-injection
  time of peak concentration of parental compound in plasma: less than 1 min
[5]; ref Tu et al. 2015
  selectivity for VAChT versus σ1/2 receptors: over 10,000 fold
[6]; [9]
  BPND: 2.69 ± 1.1 (24%)
  DVR: 3.70 ± 1.1 (17%)
  K1: 0.221 ± 0.20 (52%) mL·cm^−3·min^−1
  VT: 22.12 ± 14.1 (37%) mL· cm^−3
  k2: 0.009 ± 0.004 (26%) min^−1
[6]; 2TCM, cerebellum-hemispheres (reference region), mean ± SD, n = 3
  BPND = DVR-1: 0.00 ± 0.00
[6]; [10]
  K1: 0.144 ± 0.093 mL·cm^−3·min^−1
  VT: 5.85 ± 5.88 mL· cm^−3
  k2: 0.063 ± 0.010 min⁻¹
  k3: 0.007 ± 0.005 min⁻¹
  k3 / k4: 1.09 ± 0.84
  k4: 0.004 ± 0.003 min⁻¹
[6]; [11]
  BPND = DVR-1: 0.44 ± 0.10
  K1: 0.103 ± 0.046 mL·cm^−3·min^−1
  VT: 7.13 ± 6.52 mL· cm^−3
  k2: 0.035 ± 0.004 min⁻¹
  k3: 0.010 ± 0.012 min⁻¹
  k3 / k4: 0.94 ± 0.64
  k4: 0.004 ± 0.001 min⁻¹
[6]; [12]
  BPND = DVR-1: 0.61 ± 0.41
  K1: 0.102 ± 0.059 mL·cm^−3·min^−1
  VT: 7.46 ± 5.56 mL· cm^−3
  k2: 0.035 ± 0.008 min⁻¹
  k3: 0.014 ± 0.010 min⁻¹
  k3 / k4: 1.15 ± 0.62
  k4: 0.014 ± 0.013 min⁻¹
[6]; [13]
  BPND = DVR-1: 0.18 ± 0.13
  K1: 0.107 ± 0.091 mL·cm^−3·min^−1
  VT: 5.61 ± 4.55 mL· cm^−3
  k2: 0.039 ± 0.009 min⁻¹
  k3: 0.007 ± 0.003 min⁻¹
  k3 / k4: 1.06 ± 0.30
  k4: 0.006 ± 0.001 min⁻¹
[6]; [14]
  BPND = DVR-1: 0.12 ± 0.075
  K1: 0.101 ± 0.054 mL·cm^−3·min^−1
  VT: 5.51 ± 4.97 mL· cm^−3
  k2: 0.039 ± 0.005 min⁻¹
  k3: 0.004 ± 0.001 min⁻¹
  k3 / k4: 0.82 ± 0.53
  k4: 0.005 ± 0.001 min⁻¹
[6]; [15]
  DVR: 4.37 ± 0.34 (4%)
  K1: 0.113 ± 0.068 (35%) mL·cm^−3·min^−1 and 0.113 ± 0.068 mL·cm^−3·min^−1
  VT: 22.31 ± 20.7 (54%) mL· cm^−3 and 22.31 ± 20.71 mL· cm^−3
  k2: 0.027 ± 0.005 (11%) min^−1 and 0.027 ± 0.005 min^−1
  k3: 0.019 ± 0.009 (27%) min^−1 and 0.019 ± 0.009 min^−1
  k3 / k4: 3.52 ± 1.14
  k4: 0.005 ± 0.001 (12%) min^−1 and 0.005 ± 0.001 min^−1
[6]; [16]
  BPND = DVR-1: 0.097 ± 0.076
  K1: 0.086 ± 0.042 mL·cm^−3·min^−1
  VT: 5.23 ± 4.45 mL· cm^−3
  k2: 0.033 ± 0.003 min⁻¹
  k3: 0.003 ± 0.001 min⁻¹
  k3 / k4: 0.74 ± 0.48
  k4: 0.005 ± 0.002 min⁻¹
[6]; [17]
  BPND = DVR-1: 1.16 ± 0.24
  K1: 0.112 ± 0.061 mL·cm^−3·min^−1
  VT: 10.09 ± 8.25 mL· cm^−3
  k2: 0.030 ± 0.004 min⁻¹
  k3: 0.006 ± 0.002 min⁻¹
  k3 / k4: 1.38 ± 0.26
  k4: 0.004 ± 0.001 min⁻¹
[6]; 2TCM, vermis, mean ± SD, n = 3
  BPND = DVR-1: 0.22 ± 0.55
  K1: 0.180 ± 0.069 mL·cm^−3·min^−1
  VT: 4.77 ± 2.72 mL· cm^−3
  k2: 0.068 ± 0.005 min⁻¹
  k3: 0.004 ± 0.003 min⁻¹
  k3 / k4: 0.75 ± 0.43
  k4: 0.005 ± 0.001 min⁻¹
[6]; [18]
  BPND = DVR-1: 0.21 ± 0.13
  K1: 0.065 ± 0.041 mL·cm^−3·min^−1
  VT: 5.66 ± 4.49 mL· cm^−3
  k2: 0.026 ± 0.005 min⁻¹
  k3: 0.006 ± 0.002 min⁻¹
  k3 / k4: 1.01 ± 0.32
  k4: 0.006 ± 0.001 min⁻¹
[6]; [19]
  BPND: 2.58 ± 0.9 (20%)
  DVR: 3.58 ± 0.9 (15%)
  VT: 16.87 ± 17 (58%) mL· cm^−3
[6]; LoganREF, reference cerebellum-hemispheres, striatum, mean ± SD, n = 7
  DVR: 3.11 ± 0.43 (5%)
[6]; LoganREF, frontal cortex, mean ± SD, n = 7
  BPND: 0.29 ± 0.2
[6]; LoganREF, hippocampus, mean ± SD, n = 7
  BPND: 0.47 ± 0.3
[6]; LoganREF, middle brain, mean ± SD, n = 7
  BPND: 0.15 ± 0.2
[6]; LoganREF, occipital cortex, mean ± SD, n = 7
  BPND: 0.13 ± 0.1
[6]; LoganREF, scan duration for analysis 45 min, mean ± SD, n = 7
  Striatal BPND: 1.60 ± 0.58
[6]; LoganREF, scan duration for analysis 60 min, mean ± SD, n = 7
  Striatal BPND: 1.69 ± 0.49
[6]; LoganREF, scan duration for analysis 90 min, mean ± SD, n = 7
  Striatal BPND: 1.86 ± 0.45
[6]; LoganREF, temporal cortex, mean ± SD, n = 7
  BPND: 0.11 ± 0.1
[6]; LoganREF, thalamus, mean ± SD, n = 7
  BPND: 0.76 ± 0.3
[6]; LoganREF, vermis, mean ± SD, n = 7
  BPND: 0.063 ± 0.2
[6]; LoganREF, white matter, mean ± SD, n = 7
  BPND: 0.17 ± 0.2
[6]; [20]
  BPND: 2.17 ± 1 (27%)
  DVR: 3.17 ± 1 (18%)
  VT: 21.45 ± 14 (38%) mL· cm^−3
[6]; [21]
  BPND: 2.11 ± 0.46 (8%)
  DVR: 3.11 ± 0.46 (6%)
  R1 = K1/K1′: ( ^*** R1 = K1/K1′ 0.847 ± 0.08 (4%))
  k2: 0.17 ± 0.16 (36%) min^−1
  k3: 0.05 ± 0.04 (30%) min^−1
  k4: 0.025 ± 0.02 (30%) min^−1
[6]; [22]
  DVR: 3.15 ± 0.46 (6%)
  k2: 0.032 ± 0.007 (8%) min^−1 and 0.032 ± 0.01 min^−1
[6]; [23]
  BPND: 0.32 ± 0.2
  R1: 0.82 ± 0.3
  k2: 0.055 ± 0.02 min⁻¹
[6]; [24]
  BPND: 0.48 ± 0.2
  R1: 0.79 ± 0.1
  k2: 0.053 ± 0.04 min⁻¹
[6]; [25]
  BPND: 0.17 ± 0.1
  R1: 0.74 ± 0.2
  k2: 0.066 ± 0.1 min⁻¹
[6]; [26]
  BPND: 0.12 ± 0.1
  R1: 0.81 ± 0.3
  k2: 0.053 ± 0.02 min⁻¹
[6]; SRTM, scan duration for analysis 45 min, mean ± SD, n = 7
  Striatal BPND: 2.67 ± 1.14
[6]; SRTM, scan duration for analysis 60 min, mean ± SD, n = 7
  Striatal BPND: 2.14 ± 0.49
[6]; SRTM, scan duration for analysis 90 min, mean ± SD, n = 7
  Striatal BPND: 2.18 ± 0.37
[6]; [27]
  BPND: 0.10 ± 0.08
  R1: 0.63 ± 0.2
  k2: 0.074 ± 0.07 min⁻¹
[6]; [28]
  BPND: 0.79 ± 0.3
  R1: 0.95 ± 0.2
  k2: 0.059 ± 0.02 min⁻¹
[6]; SRTM, vermis, mean ± SD, n = 7
  BPND: 0.081 ± 0.07
  R1: 1.08 ± 0.4
  k2: 0.064 ± 0.6 min⁻¹
[6]; [29]
  BPND: 0.17 ± 0.2
  R1: 0.47 ± 0.1
  k2: 0.032 ± 0.01 min⁻¹
[6]; after tracer injection
  time of peak striatal uptake: about 20 min

## Cc1cccc2c1C[C@@H](O)[C@H](N1CCN(c3ccccc3N)CC1)C2 (relative stereo) [[^11C](R,R)HAPT, (R,R)-trans-8-methyl-2-hydroxy-3-[4-[2-aminophenyl]-piperizinyl]tetralin, reference compound]
[5]; ref Shiba et al. 2006, Kawamura et al. 2006
  selectivity for VAChT versus σ1/2 receptors: 10 fold
[7]
  time-activity curves peak time post injection: ≤ 20 min
